From EP1806348A2, “Pyrido (2,3-D)Pyrimidines as inhibitors of cellular proliferation” (Warner-Lambert Company LLC, priority 1997, dated 1998)

Tests used:
Type in all cases: biochemical
[1] = target: cdk4/D (Homo sapiens, UniProt P11802); experiment: Cyclin-dependent kinase 4 (cdk4) enzyme assay, 32P incorporation into retinoblastoma; settings: Table 1; 25 µM ATP, retinoblastoma substrate
Protocol: A typical assay, for instance, measures inhibitory activity against the cyclin D dependent kinase 4 enzyme (cdk4/D). […] The cdk 4 assay was carried out as follows.
(§1) All components except the ATP were added to the wells, and the plate was placed on a plate mixer for 2 minutes. […] The reaction was terminated by addition of 0.1 mL of 20% trichloroacetic acid (TCA). The plate was kept at 4°C for at least 1 hour to allow the substrate to precipitate. The wells were then washed five times with 0.2 mL of 10% TCA and ^32P incorporation was determined with a beta plate counter (Wallac Inc., Gaithersburg, MD).

[2] = target: cdk2/cyclinE (Homo sapiens, UniProt P24941); experiment: Cyclin-dependent kinase assay (cdk2/cyclinE); settings: Table 1; read-out: cdk2/E IC50
Protocol: as §1, with “TCA.” for “trichloroacetic acid (TCA).”, “incorporation” for “incorporation was”

[3] = target: cdk2/cyclinA (Homo sapiens, UniProt P24941); experiment: Cyclin-dependent kinase assay (cdk2/cyclinA); settings: Table 1
Protocol: as §1, with “TCA.” for “trichloroacetic acid (TCA).”, “incorporation” for “incorporation was”

[4] = target: cdc2/cyclinB (Homo sapiens, UniProt P06493); experiment: Cyclin-dependent kinase assay (cdc2/cyclinB); settings: Table 1; read-out: cdk1/B IC50
cdc2/cyclinB, sequence (P06493 whole entry): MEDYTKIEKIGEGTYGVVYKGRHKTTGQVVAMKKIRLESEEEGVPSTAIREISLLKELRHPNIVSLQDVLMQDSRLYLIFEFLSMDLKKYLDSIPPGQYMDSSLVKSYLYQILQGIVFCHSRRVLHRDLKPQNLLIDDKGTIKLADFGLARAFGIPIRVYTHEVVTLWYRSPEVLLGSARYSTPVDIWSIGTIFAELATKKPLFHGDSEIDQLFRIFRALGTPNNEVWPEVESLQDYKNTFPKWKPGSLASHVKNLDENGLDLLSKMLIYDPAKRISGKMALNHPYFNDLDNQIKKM
cdc2/cyclinB, sequence (P14635 whole entry, further chain): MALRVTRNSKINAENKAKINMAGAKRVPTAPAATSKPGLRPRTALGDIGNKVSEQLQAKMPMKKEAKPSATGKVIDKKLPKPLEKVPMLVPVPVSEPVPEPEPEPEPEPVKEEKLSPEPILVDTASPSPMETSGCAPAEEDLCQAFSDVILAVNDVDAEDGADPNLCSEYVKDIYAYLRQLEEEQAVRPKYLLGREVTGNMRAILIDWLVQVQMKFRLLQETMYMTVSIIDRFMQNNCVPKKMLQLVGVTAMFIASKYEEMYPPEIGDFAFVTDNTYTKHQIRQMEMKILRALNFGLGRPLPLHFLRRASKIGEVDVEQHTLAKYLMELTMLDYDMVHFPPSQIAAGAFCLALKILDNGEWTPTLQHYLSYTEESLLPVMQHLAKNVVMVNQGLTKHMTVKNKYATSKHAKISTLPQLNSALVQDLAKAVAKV
Protocol: as §1, with “TCA.” for “trichloroacetic acid (TCA).”, “incorporation” for “incorporation was”

[5] = target: T1, mouse PDGF-β receptor tyrosine kinase (Mus musculus, UniProt P05622); experiment: PDGF receptor tyrosine kinase assay; settings: Table 3
T1 construct: amplify a fragment of DNA that codes for the intracellular tyrosine kinase domain; made in house; host or cells: SF9 insect cells (baculovirus)
T1 sequence (P05622 599-961 limits assumed): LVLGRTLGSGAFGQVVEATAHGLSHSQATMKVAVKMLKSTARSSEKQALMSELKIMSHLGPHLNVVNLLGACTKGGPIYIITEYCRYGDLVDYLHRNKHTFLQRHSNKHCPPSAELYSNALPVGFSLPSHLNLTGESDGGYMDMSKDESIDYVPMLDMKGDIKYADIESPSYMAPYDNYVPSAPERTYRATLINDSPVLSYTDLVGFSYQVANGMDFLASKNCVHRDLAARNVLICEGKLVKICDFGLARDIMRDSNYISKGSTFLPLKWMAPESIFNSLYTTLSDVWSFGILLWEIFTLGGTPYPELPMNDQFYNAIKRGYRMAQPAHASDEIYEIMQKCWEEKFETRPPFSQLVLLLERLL
Text: (§2) Full-length cDNAs for the mouse PDGF-β and human FGF-1 (flg) receptor tyrosine kinases were obtained from J. Escobedo and prepared as described in J. Biol. Chem., 1991;262:1482-1487. PCR primers were designed to amplify a fragment of DNA that codes for the intracellular tyrosine kinase domain. The fragment was inserted into a baculovirus vector, cotransfected with AcMNPV DNA, and the recombinant virus isolated. SF9 insect cells were infected with the virus to overexpress the protein, and the cell lysate was used for the assay. Assays were performed in 96-well plates (100 µL/incubation/well), and conditions were optimized to measure the incorporation of ^32P from γ^32P-ATP into a glutamate-tyrosine co-polymer substrate. Briefly, to each well was added 82.5 µL of incubation buffer containing 25 mM Hepes (pH 7.0), 150 mM NaCl, 0.1% Triton X-100, 0.2 mM PMSF, 0.2 mM Na3VO4, 10 mM MnCl2, and 750 µg/mL of Poly (4:1) glutamate-tyrosine followed by […] of inhibitor and 5 µL of enzyme lysate (7.5 µg/µL FGF-TK or 6.0 µg/µL PDGF-TK) to initiate the reaction. Following a 10 minute incubation at 25°C, […] of γ^32P-ATP (0.4 µCi plus 50 µM ATP) was added to each well, and samples were incubated for an additional 10 minutes at 25°C. The reaction was terminated by the addition of 100 µL of 30% trichloroacetic acid (TCA) containing 20 mM sodium pyrophosphate and precipitation of material onto glass fiber mats (Wallac). Filters were washed three times with 15% TCA containing 100 mM sodium pyrophosphate, and the radioactivity retained on the filters counted in a Wallac 1250 Betaplate reader. Nonspecific activity was defined as radioactivity retained on the filters following incubation of samples with buffer alone (no enzyme). Specific enzymatic activity (enzyme plus buffer) was defined as total activity minus nonspecific activity. […]

[6] = target: T2, human FGF-1 (flg) receptor tyrosine kinase (Homo sapiens, UniProt P11362); experiment: FGF receptor tyrosine kinase assay; settings: Table 3
T2 construct: amplify a fragment of DNA that codes for the intracellular tyrosine kinase domain; made in house; host or cells: SF9 insect cells (baculovirus)
T2 sequence (P11362 478-767 limits assumed): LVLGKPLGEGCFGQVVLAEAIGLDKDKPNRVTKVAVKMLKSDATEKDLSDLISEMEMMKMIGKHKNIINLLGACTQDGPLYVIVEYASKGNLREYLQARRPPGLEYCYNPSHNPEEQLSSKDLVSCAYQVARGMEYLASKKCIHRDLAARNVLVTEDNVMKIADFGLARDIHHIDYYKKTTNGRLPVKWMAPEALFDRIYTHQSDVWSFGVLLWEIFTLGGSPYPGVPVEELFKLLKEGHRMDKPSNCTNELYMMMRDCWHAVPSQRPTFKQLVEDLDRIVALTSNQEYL
Text: as §2

[7] = target: c-Src (Homo sapiens, UniProt P12931); experiment: c-Src protein kinase assay; settings: Table 5
c-Src, sequence (P12931 whole entry, the tested form may be a part): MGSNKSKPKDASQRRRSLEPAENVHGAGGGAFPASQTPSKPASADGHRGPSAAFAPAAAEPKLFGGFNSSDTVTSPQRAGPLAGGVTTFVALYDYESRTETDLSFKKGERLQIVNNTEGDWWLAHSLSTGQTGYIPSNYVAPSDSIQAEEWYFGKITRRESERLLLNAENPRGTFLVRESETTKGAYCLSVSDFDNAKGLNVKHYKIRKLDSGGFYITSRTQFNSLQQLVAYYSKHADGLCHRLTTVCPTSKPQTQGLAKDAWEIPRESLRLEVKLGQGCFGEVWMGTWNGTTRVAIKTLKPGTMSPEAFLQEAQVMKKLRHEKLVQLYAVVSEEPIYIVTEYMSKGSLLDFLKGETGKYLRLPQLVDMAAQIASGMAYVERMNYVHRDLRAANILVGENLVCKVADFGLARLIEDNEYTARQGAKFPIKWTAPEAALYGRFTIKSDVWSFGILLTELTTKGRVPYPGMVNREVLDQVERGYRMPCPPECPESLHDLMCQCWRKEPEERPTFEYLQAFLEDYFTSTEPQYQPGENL
Protocol: C-Src kinase was purified from baculovirus infected insect cell lysates using an antipeptide monoclonal antibody directed against the N-terminal amino acids (amino acids 2-17) of c-Src. The antibody, covalently linked to 0.65 µm latex beads, was added to a suspension of insect cell lysis buffer comprised of 150 mM NaCl, 50 mM Tris pH 7.5, 1 mM DTT, 1% NP-40,2 mM EGTA, 1 mM sodium vanadate, 1 mM PMSF, 1 µg/mL each of leupeptin, pepstatin, and aprotinin. Insect cell lysate containing c-Src protein was incubated with these beads for 3 to 4 hours at 4°C with rotation. At the end of the lysate incubation, the beads were rinsed three times in lysis buffer, resuspended in lysis buffer containing 10% glycerol, and frozen. These latex beads were thawed, rinsed three times in assay buffer (40 mM Tris, pH 7.5, […]) and suspended in the same buffer. In a Millipore 96-well plate with a 0.65 µm polyvinylidine membrane bottom were added the reaction components: 10 µL c-Src beads, 10 µL of 2.5 mg/mL poly GluTyr substrate, 5 µM ATP containing 0.2 µCi labeled ^32P-ATP, 5 µL DMSO containing inhibitors or as a solvent control, and buffer to make the final volume 125 µL. The reaction was started at room temperature by addition of the ATP and quenched 10 minutes later by the addition of 125 µL of 30% TCA, 0.1 M sodium pyrophosphate for 5 minutes on ice. […] The filters were then punched, counted in a liquid scintillation counter, and the data examined for inhibitory activity in comparison to a known inhibitor such as erbstatin. […]

[8] = target: cdk6/D2 (Homo sapiens, UniProt Q00534); experiment: cdk6/D2 enzyme assay, similar to cdk4 assay; settings: read-out: IC50 against cdk6/D2
cdk6/D2, sequence (Q00534 whole entry): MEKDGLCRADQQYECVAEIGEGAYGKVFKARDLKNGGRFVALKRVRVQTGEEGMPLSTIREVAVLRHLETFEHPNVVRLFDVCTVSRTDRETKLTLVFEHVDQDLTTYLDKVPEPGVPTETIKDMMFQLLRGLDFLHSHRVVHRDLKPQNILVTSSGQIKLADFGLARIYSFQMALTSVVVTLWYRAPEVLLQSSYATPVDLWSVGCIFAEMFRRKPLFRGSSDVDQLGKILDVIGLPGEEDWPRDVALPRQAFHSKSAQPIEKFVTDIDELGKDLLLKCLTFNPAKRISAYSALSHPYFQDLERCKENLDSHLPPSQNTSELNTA
cdk6/D2, sequence (P30279 whole entry, further chain): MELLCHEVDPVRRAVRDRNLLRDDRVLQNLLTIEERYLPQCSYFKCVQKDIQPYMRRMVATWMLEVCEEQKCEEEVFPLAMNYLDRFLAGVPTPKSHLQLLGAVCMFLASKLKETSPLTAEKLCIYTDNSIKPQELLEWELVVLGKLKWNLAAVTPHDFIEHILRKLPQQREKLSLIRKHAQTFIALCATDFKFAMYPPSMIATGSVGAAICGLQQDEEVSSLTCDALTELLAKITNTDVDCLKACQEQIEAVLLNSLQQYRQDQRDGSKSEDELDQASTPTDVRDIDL
Protocol: (§3) The total volume was 0.1 mL containing a final concentration of 20 mM TRIS (tris[hydroxymethyl]aminomethane), at pH 7.4, 50 mM NaCl, 1 mM dithiothreitol, 10 mM MgCl2, 25 µM ATP containing 0.25 µCi of [^32P]ATP, 20 ng of cdk4, 1 µg of retinoblastoma, and appropriate dilutions of a compound of the present invention. All components except the ATP were added to the wells, and the plate was placed on a plate mixer for 2 minutes. The reaction was started by adding [^32P]ATP and the plate was incubated at 25°C for 15 minutes. The reaction was terminated by addition of 0.1 mL of 20% trichloroacetic acid (TCA). The plate was kept at 4°C for at least 1 hour to allow the substrate to precipitate. The wells were then washed five times with 0.2 mL of 10% TCA and ^32P incorporation was determined with a beta plate counter (Wallac Inc., Gaithersburg, MD).
(§4) Several of the invention compounds have also shown good inhibitory activity against cdk6/D2 and cdk6/D3 enzymes. These assays are carried out in a manner similar to that described above for cdk4, by simply employing the appropriate cdk6 kinase enzyme.

[9] = target: cdk6/D3 (Homo sapiens, UniProt Q00534); experiment: cdk6/D3 enzyme assay, similar to cdk4 assay; settings: read-out: IC50 against cdk6/D3
cdk6/D3, sequence (P30281 whole entry): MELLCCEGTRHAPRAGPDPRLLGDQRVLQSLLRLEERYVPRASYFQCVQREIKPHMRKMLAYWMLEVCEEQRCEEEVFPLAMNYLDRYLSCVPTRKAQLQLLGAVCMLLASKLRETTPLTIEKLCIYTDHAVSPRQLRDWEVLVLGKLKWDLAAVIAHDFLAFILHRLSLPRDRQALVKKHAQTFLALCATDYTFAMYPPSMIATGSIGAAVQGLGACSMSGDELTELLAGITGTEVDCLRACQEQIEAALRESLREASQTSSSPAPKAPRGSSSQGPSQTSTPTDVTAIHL
cdk6/D3, sequence (Q00534 whole entry): as the sequence (Q00534 whole entry) above
Protocol: as §3, §4

cdk4/D, sequence (P11802 whole entry): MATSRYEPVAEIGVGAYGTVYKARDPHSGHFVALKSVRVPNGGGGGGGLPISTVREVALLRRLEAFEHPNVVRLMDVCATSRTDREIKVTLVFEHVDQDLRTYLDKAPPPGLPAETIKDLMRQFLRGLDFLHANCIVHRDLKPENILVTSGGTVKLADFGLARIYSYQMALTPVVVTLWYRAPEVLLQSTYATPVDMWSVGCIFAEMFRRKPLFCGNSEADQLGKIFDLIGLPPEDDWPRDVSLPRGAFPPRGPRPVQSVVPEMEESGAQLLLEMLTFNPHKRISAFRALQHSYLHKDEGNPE
cdk4/D, sequence (P24385 whole entry, further chain): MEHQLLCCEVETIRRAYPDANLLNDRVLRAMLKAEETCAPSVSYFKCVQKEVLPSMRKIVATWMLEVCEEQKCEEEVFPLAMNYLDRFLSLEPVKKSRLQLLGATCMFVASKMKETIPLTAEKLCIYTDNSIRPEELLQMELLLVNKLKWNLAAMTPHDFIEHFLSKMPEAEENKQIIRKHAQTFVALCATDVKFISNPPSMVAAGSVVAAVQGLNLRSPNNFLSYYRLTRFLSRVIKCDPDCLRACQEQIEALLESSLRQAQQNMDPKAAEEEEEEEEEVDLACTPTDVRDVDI

SMILES | IC50 [1] | IC50 [2] | IC50 [3] | IC50 [4] | IC50 [5] | IC50 [6] | IC50 [7] | IC50 [8] | IC50 [9]
CCn1c(=O)ccc2cnc(Nc3ccccc3)nc21 [Example 18, 8-Ethyl-2-phenylamino-8H-pyrido[2,3-d]pyrimidin-7-one] | 752 nM | 410 nM | 129 nM | 1020 nM | 1780 nM | 3300 nM | – | – | –
CCCCn1c(=O)ccc2cnc(Nc3ccccc3)nc21 [Example 40, 8-Butyl-2-phenylamino-8H-pyrido[2,3-d]pyrimidin-7-one] | 1490 nM | 58 nM | 37 nM | 205 nM | – | – | 19500 nM | – | –
CCCn1c(=O)ccc2cnc(Nc3ccccc3)nc21 [Example 41, 2-Phenylamino-8-propyl-8H-pyrido[2,3-d]pyrimidin-7-one] | 550 nM | 112 nM | 50 nM | 299 nM | 4960 nM | 6600 nM | – | – | –
CC(C)Cn1c(=O)ccc2cnc(Nc3ccccc3)nc21 [Example 42, 8-Isobutyl-2-phenylamino-8H-pyrido[2,3-d]pyrimidin-7-one] | 400 nM | – | – | – | 3690 nM | 4060 nM | – | – | –
CCn1c(=O)ccc2cnc(Nc3ccncc3)nc21 [Example 50, 8-Ethyl-2-(pyridin-4-ylamino)-8H-pyrido[2,3-d]pyrimidin-7-one] | 2000 nM | – | – | – | – | – | 15000 nM | – | –
CCN(CC)CCOc1ccc(Nc2ncc3ccc(=O)n(CC)c3n2)cc1 [Example 52, 2-[4-(2-Diethylaminoethoxy)-phenylamino]-8-ethyl-8H-pyrido[2,3-d]pyrimidin-7-one] | 160 nM | 2340 nM | 750 nM | 2660 nM | – | – | 1030 nM | – | –
CCN(CC)CCOc1ccc(Nc2ncc3ccc(=O)n(C(C)C)c3n2)cc1 [Example 59, 2-[4-(2-Diethylaminoethoxy)-phenylamino]-8-isopropyl-8H-pyrido[2,3-d]pyrimidin-7-one] | 45 nM | 800 nM | 80 nM | 1240 nM | – | – | 4430 nM | – | –

The next lines start with the values.

IC50 [1] | IC50 [2] | IC50 [3] | IC50 [4] | IC50 [5] | IC50 [6] | IC50 [7] | IC50 [8] | IC50 [9] | SMILES
1700 nM | – | – | – | – | – | 21200 nM | – | – | O=c1ccc2cnc(Nc3ccccc3)nc2n1-c1ccccc1 [Example 101, 2-Phenylamino-8-phenyl-8H-pyrido[2,3-d]pyrimidin-7-one]
210 nM | 110 nM | 12 nM | 190 nM | 4180 nM | 2980 nM | – | – | – | O=c1ccc2cnc(Nc3ccccc3)nc2n1C1CCCC1 [Example 108, 8-Cyclopentyl-2-phenylamino-8H-pyrido[2,3-d]pyrimidin-7-one]
– | – | – | – | – | – | 545 nM | – | – | CN1CCN(c2ccc(Nc3ncc4ccc(=O)n(CCCOCc5ccccc5)c4n3)cc2)CC1 [Example 115, 8-(3-Benzyloxy-propyl)-2-[4-(4-methyl-piperazin-1-yl)-phenylamino]-8H-pyrido[2,3-d]pyrimidin-7-one]
47 nM | 125 nM | 79 nM | 749 nM | 16100 nM | 12400 nM | – | – | – | O=c1ccc2cnc(Nc3ccccc3)nc2n1C1CCCCC1 [Example 131, 8-Cyclohexyl-2-phenylamino-8H-pyrido[2,3-d]pyrimidin-7-one]
– | – | – | – | 99 nM | 99 nM | – | – | – | CCN(CC)CCOc1ccc(Nc2ncc3ccc(=O)n(C4CCCCC4)c3n2)cc1C [Example 150, 8-Cyclohexyl-2-[4-(2-diethylamino-ethoxy)-3-methyl-phenylamino]-8H-pyrido[2,3-d]pyrimidin-7-one]
– | – | – | – | 17100 nM | 19700 nM | – | – | – | O=c1ccc2cnc(Nc3ccc(-n4cccn4)cc3)nc2n1C1CCCCC1 [Example 162, 8-Cyclohexyl-2-(4-pyrazol-1-yl-phenylamino)-8H-pyrido[2,3-d]pyrimidin-7-one]
– | – | – | – | 33100 nM | 20600 nM | – | – | – | CC1CC(C)CN(c2ccc(Nc3ncc4ccc(=O)n(C5CCCCC5)c4n3)cc2)C1 (stereo not shown) [Example 167, 8-Cyclohexyl-2-[4-(3,5-dimethyl-piperidin-1-yl)-phenylamino]-8H-pyrido[2,3-d]pyrimidin-7-one]
38 nM | 173 nM | 75 nM | 503 nM | 27800 nM | 12000 nM | – | – | – | O=c1ccc2cnc(Nc3ccccc3)nc2n1C1CC2CCC1C2 (stereo not shown) [Example 180, 8-Bicyclo[2.2.1]hept-2-yl-2-phenylamino-8H-pyrido[2,3-d]pyrimidin-7-one]
– | – | – | – | 1060 nM | 1450 nM | – | – | – | O=c1ccc2cnc(Nc3ccc(N4CCC(CCO)CC4)cc3)nc2n1C1CCCC1 [Example 196, 8-Cyclopentyl-2-{4-[4-(2-hydroxy-ethyl)-piperidin-1-yl]-phenylamino}-8H-pyrido[2,3-d]pyrimidin-7-one]
– | – | – | – | – | – | 1100 nM | – | – | O=c1ccc2cnc(Nc3ccc(N4CCC(O)CC4)cc3)nc2n1C1CCCC1 [Example 198, 8-Cyclopentyl-2-[4-(4-hydroxy-piperidin-1-yl)-phenylamino]-8H-pyrido[2,3-d]pyrimidin-7-one]
– | – | – | – | – | – | – | 7.1 nM | 13 nM | O=c1ccc2cnc(Nc3ccc(N4CCC(CCCO)CC4)cc3)nc2n1C1CC2CCC1C2 (stereo not shown) [Example 214, 8-Bicyclo[2.2.1]hept-2-yl-2-{4-[4-(3-hydroxy-propyl)-piperidin-1-yl]-phenylamino}-8H-pyrido[2,3-d]pyrimidin-7-one]
